Reference: ChEMBL document CHEMBL5126540, “Resveratrol-based compounds and neurodegeneration: Recent insight in multitarget therapy” (Eur J Med Chem, 2022)

How the values were obtained:
[1] = Antioxidant activity assessed as ABTS radical scavenging activity measured after 6 mins; assay type: functional
[2] = Antioxidant activity assessed as galvinoxyl radical scavenging activity measured after 20 mins; assay type: functional
[3] = biological target: T1, Amine oxidase [flavin-containing] B (Homo sapiens, UniProt P27338); test: Inhibition of human recombinant MAO-B incubated for 15 mins by Amplex red MAO assay
T1 sequence (P27338 whole entry): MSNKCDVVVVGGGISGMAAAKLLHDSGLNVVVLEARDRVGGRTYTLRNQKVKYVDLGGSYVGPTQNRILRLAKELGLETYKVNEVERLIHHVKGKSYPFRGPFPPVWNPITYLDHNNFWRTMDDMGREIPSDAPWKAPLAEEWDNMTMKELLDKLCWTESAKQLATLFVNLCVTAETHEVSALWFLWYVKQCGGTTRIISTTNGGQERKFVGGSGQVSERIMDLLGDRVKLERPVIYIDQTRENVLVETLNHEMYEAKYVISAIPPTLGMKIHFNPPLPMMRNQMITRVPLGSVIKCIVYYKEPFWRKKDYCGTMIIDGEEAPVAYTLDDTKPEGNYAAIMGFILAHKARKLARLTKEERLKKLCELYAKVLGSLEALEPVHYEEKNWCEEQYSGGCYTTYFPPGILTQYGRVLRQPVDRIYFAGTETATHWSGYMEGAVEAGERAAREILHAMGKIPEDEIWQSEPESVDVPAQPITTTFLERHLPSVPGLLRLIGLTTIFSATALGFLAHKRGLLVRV

PC-12 = test: Neuroprotective activity against H2o2-induced rat PC-12 cells assessed as cell viability preincubated for 2 hrs followed by H2O2 treatment measured after 24 hrs by MTT assay; assay type: functional; conditions: time 26 hrs
[4] = Antioxidant activity assessed as DPPH radical scavenging activity measured after 20 mins; assay type: functional
C2C12 = test: Cytotoxicity against mouse C2C12 cells incubated for 24 to 48 hrs by MTT assay; assay type: toxicity, cell-based; conditions: time 24-48 hrs
Liver = test: tissue or blood; conditions: Canis lupus familiaris
Description: Antioxidant activity assessed as Fe2+/ascorbate-induced MDA level in liver mitochondria (unknown origin) preincubated for 30 mins followed by addition of Fe2+/ascorbate measured after 30 mins

[5] = biological target: T2, Polyunsaturated fatty acid 5-lipoxygenase (Homo sapiens, UniProt P09917); test: Inhibition of human LOX-5 in presence of LOX substrate solution incubated for 10 mins by Varioskan-flash microplate spectrophotometer reader
T2 sequence (P09917 whole entry): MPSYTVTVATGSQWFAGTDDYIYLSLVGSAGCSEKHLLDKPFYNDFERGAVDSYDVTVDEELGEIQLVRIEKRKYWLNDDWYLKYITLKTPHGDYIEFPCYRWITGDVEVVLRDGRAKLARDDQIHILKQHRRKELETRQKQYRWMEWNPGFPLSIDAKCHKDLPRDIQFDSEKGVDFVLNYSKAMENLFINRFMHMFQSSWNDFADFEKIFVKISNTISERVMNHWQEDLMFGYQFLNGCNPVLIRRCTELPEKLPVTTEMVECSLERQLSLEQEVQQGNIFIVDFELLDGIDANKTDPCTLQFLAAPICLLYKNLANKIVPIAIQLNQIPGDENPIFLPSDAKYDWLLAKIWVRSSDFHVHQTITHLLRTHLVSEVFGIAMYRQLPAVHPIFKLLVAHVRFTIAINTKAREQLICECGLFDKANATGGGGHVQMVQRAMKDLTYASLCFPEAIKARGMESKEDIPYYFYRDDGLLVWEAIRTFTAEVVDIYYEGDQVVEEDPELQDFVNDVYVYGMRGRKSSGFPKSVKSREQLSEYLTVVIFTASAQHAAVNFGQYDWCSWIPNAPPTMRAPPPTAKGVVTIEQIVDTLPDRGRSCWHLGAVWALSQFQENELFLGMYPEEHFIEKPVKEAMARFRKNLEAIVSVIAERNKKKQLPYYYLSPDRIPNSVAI

Acetylcholinesterase [6] = biological target: T3, Acetylcholinesterase (Homo sapiens, UniProt P22303); test: Inhibition of AChE (unknown origin) incubated for 30 mins by Ellman's method
T3 sequence (P22303 whole entry): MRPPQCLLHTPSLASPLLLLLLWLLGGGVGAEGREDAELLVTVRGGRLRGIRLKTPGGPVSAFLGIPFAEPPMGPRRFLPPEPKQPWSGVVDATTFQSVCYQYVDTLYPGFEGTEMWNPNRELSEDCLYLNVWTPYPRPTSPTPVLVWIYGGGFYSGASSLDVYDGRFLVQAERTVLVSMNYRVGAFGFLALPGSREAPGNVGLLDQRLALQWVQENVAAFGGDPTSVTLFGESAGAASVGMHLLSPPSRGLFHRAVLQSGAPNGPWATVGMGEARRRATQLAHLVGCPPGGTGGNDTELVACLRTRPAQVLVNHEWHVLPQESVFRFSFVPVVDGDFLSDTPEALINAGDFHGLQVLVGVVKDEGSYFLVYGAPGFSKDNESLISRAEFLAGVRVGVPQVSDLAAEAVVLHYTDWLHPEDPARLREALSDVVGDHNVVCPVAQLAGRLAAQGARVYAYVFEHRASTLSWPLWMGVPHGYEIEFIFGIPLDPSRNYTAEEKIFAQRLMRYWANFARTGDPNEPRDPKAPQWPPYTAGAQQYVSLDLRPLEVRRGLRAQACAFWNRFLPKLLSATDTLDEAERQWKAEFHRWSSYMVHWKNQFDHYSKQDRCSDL

Cholinesterase [7] = biological target: T4, Cholinesterase (Homo sapiens, UniProt P06276)
T4 sequence (P06276 whole entry): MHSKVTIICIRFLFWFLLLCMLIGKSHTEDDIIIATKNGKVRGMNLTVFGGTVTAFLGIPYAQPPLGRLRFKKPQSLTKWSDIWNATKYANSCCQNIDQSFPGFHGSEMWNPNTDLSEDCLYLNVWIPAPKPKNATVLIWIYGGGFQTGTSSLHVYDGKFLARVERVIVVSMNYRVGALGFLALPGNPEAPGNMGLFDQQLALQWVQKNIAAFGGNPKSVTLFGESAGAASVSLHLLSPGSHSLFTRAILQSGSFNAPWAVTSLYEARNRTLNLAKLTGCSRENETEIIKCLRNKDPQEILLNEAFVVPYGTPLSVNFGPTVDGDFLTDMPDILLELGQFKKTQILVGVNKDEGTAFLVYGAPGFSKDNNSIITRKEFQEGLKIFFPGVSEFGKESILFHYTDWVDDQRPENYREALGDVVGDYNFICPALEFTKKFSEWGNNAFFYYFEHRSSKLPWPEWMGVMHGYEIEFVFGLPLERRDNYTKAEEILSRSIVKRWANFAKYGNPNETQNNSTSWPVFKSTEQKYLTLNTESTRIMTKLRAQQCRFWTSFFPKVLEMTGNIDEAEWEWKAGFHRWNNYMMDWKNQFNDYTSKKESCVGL
Description: Inhibition of BChE (unknown origin) incubated for 30 mins by Ellman's method

[8] = biological target: T1, Amine oxidase [flavin-containing] B
Description: Inhibition of human recombinant MAO-B incubated for 30 mins by fluorescence based assay

[9] = Antioxidant activity assessed as trolox equivalent of ORAC radical scavenging activity by ORAC-FL assay; assay type: functional
[10] = biological target: T5, Amyloid-beta precursor protein (Homo sapiens, UniProt P05067); test: Inhibition of Amyloid beta (1 to 42) (unknown origin) self aggregation at 25 uM incubated for 24 hrs by ThT-based fluorescence assay relative to control
T5 sequence (P05067 whole entry): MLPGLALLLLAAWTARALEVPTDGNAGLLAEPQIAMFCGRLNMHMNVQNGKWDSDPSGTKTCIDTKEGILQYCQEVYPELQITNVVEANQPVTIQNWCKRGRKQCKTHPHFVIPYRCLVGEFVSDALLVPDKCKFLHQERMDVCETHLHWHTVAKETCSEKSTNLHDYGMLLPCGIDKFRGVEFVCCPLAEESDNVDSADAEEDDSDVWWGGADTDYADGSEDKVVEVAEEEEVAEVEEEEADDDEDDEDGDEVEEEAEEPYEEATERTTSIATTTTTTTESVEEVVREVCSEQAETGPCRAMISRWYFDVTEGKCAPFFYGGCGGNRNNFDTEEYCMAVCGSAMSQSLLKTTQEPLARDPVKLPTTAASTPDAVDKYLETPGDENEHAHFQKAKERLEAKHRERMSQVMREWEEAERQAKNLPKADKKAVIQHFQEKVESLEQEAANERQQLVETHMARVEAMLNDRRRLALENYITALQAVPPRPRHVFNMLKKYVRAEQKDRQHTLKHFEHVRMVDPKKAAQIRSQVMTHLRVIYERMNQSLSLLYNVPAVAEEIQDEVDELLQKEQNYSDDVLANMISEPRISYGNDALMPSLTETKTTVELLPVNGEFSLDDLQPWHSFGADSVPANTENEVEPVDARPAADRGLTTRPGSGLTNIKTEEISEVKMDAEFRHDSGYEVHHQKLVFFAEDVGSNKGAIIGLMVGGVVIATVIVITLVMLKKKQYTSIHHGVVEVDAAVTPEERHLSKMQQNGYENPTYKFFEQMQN

[11] = Permeability of the compound across blood brain barrier measured after 18 hrs by parallel artificial membrane permeation assay; assay type: ADME; conditions: PAMPA, read-out: permeability
Acetylcholinesterase [12] = biological target: Acetylcholinesterase (Electrophorus electricus, UniProt O42275); test: Inhibition of electric eel AChE measured after 2 mins by Ellman's method
Chain of Acetylcholinesterase (Electrophorus electricus, UniProt O42275) (O42275 whole entry): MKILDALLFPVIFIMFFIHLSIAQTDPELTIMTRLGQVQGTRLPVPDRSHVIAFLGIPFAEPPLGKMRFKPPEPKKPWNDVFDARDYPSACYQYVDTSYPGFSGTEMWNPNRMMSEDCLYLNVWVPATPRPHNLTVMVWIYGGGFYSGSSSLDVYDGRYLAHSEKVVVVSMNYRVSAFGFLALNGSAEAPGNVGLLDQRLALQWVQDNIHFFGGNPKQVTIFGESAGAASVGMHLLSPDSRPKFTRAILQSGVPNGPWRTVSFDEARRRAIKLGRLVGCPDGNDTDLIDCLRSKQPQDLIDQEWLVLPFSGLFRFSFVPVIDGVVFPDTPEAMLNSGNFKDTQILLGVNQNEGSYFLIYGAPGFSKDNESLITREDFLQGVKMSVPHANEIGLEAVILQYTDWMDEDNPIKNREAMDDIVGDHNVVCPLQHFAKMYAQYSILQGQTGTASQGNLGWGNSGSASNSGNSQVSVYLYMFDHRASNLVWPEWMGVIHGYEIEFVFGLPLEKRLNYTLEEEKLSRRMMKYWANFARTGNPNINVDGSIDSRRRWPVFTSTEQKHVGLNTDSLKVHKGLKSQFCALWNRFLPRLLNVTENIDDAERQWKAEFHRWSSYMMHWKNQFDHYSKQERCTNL

Acetylcholinesterase [13] = biological target: T3, Acetylcholinesterase; test: Binding affinity to AChE (unknown origin) assessed as inhibition constant
Carbonic anhydrase 1 = Carbonic anhydrase 1 (Homo sapiens, UniProt P00915); test: Binding affinity to carbonic anhydrase 1 (unknown origin) assessed as inhibition constant
Chain of Carbonic anhydrase 1 (P00915 whole entry): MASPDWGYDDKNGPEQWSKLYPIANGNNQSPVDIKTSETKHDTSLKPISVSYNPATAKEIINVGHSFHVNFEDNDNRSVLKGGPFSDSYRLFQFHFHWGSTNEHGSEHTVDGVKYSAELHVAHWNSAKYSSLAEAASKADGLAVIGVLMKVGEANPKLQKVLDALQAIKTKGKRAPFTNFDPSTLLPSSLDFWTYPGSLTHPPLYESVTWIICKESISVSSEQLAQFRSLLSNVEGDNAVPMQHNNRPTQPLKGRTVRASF

Carbonic anhydrase 2 = Carbonic anhydrase 2 (Homo sapiens, UniProt P00918)
Description: Binding affinity to carbonic anhydrase 2 (unknown origin) assessed as inhibition constant

Beta-secretase 1 = Beta-secretase 1 (Homo sapiens, UniProt P56817); test: Inhibition of human recombinant BACE-1 expressed in baculovirus using Rh-EVNLDAEFK-Quencher as substrate incubated for 60 mins by measuring increase in fluorescence intensity using fluorescence microplate reader
Chain of Beta-secretase 1 (P56817 whole entry): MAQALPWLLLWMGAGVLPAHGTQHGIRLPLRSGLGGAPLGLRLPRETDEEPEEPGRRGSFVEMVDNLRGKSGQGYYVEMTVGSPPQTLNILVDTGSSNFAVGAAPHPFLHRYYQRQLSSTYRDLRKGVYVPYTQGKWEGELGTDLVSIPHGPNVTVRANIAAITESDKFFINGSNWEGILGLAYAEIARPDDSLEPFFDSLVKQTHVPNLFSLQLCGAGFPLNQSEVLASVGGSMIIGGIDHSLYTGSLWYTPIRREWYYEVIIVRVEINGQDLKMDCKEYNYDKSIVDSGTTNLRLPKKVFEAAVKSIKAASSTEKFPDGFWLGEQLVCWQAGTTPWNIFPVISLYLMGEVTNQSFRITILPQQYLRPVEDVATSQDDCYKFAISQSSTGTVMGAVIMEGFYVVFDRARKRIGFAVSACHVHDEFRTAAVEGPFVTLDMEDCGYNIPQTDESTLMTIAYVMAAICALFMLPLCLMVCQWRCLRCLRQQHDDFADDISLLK

[14] = Antioxidant activity assessed as DPPH radical scavenging activity measured after 45 mins by Varioskan-flash microplate spectrophotometer reader; assay type: functional
Acetylcholinesterase [15] = biological target: T3, Acetylcholinesterase; test: Binding affinity to AChE (unknown origin) assessed as inhibition constant using AChI as substrate incubated for 15 mins by Ellman's spectrophotometric method
[16] = Antioxidant activity assessed as ABTS radical scavenging activity; assay type: functional
[17] = time 30.0 min
[18] = biological target: T5, Amyloid-beta precursor protein; test: Inhibition of HFIP-treated Amyloid beta (1 to 42) (unknown origin) self aggregation at 20 uM incubated for 46 to 48 hrs by fluorescence based assay relative to control; conditions: time 46-48 hrs
[19] = biological target: T6, Amine oxidase [flavin-containing] A (Homo sapiens, UniProt P21397)
T6 sequence (P21397 whole entry): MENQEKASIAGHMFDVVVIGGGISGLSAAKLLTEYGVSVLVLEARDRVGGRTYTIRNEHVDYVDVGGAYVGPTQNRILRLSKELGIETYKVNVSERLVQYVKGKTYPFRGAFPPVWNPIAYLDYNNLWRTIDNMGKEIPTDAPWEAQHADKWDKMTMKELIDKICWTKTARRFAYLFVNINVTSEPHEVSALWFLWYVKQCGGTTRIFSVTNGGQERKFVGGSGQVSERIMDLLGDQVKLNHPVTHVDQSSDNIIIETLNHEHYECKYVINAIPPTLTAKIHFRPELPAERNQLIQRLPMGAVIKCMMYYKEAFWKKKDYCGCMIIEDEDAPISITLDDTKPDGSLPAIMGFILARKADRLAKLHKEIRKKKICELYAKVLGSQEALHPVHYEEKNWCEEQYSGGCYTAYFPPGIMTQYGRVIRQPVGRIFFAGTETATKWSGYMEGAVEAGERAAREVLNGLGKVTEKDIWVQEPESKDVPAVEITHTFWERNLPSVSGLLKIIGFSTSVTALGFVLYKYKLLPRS
Description: Inhibition of human recombinant MAO-A incubated for 15 mins by Amplex red MAO assay

[20] = biological target: T5, Amyloid-beta precursor protein
Cholinesterase [21] = biological target: T4, Cholinesterase; test: Inhibition of BChE (unknown origin) using BTCI as substrate incubated for 30 mins by Ellman's method
Acetylcholinesterase [22] = biological target: T3, Acetylcholinesterase; test: Inhibition of AChE (unknown origin) using ATCI as substrate incubated for 30 mins by Ellman's method
[23] = Antioxidant activity assessed as DPPH radical scavenging activity measured after 15 mins; assay type: functional
[24] = biological target: T5, Amyloid-beta precursor protein; test: Inhibition of Amyloid beta (1 to 42) (unknown origin) self aggregation at 25 uM by ThT-based fluorescence assay relative to control

Oc1ccc(/C=C/c2cc(O)cc(O)c2)cc1 [RESVERATROL]
RC50 [1]: 1.43 µmol/mL | RC50 [2]: 72.7 µmol/mL | IC50 [3]: 31.8 µM | Activity (PC-12): 81.23% | RC50 [4]: 26.4 µmol/mL | Activity (C2C12): 110% | EC50 (Liver): 7.44 µM

COc1cc(/C=C/c2cc(=O)oc3c2ccc2oc(-c4ccccc4)cc23)cc(OC)c1
IC50 [5]: 13.9 µM | IC50 (Acetylcholinesterase [6]): 1.8 µM | IC50 (Cholinesterase [7]): 3.5 µM

Cc1ncc(/C=C/c2ccc(CN3CCCCC3)c(O)c2)c2c1OC(C)(C)OC2
IC50 [8]: 1.5 µM | Activity [9]: 1.52 µM

CCN(CC)C[C@@H](O)COc1ccc(/C=C/c2cc(OC)cc(OC)c2)cc1
inhibition [10]: 40.2% | Papp at 18 h [11]: 8.12 ×10⁻⁶ cm/s | Activity (PC-12): 74.9% | IC50 (Acetylcholinesterase [12]): 24 µM

COc1cc(/C=C/c2cc(=O)oc3c2ccc2oc(-c4ccc(F)cc4)cc23)cc(OC)c1
IC50 [5]: 13.9 µM | IC50 (Acetylcholinesterase [6]): 1.8 µM | IC50 (Cholinesterase [7]): 3.5 µM

Oc1ccc(/C=C/c2ccc(C(F)(F)F)cc2)cc1Cl
Activity (C2C12): 150%

NS(=O)(=O)c1ccc(NCc2cccc(Cl)c2O)cc1
Ki (Acetylcholinesterase [13]): 0.021 µM

Oc1ccc(/N=C/c2ccc(O)c(O)c2O)cc1
RC50 [1]: 1.98 µmol/mL | RC50 [2]: 15.4 µmol/mL | RC50 [4]: 8.77 µmol/mL

NS(=O)(=O)c1ccc(/N=C/c2cc(Br)cc(Cl)c2O)cc1
Ki (Carbonic anhydrase 1): 0.0321 µM | Ki (Acetylcholinesterase [13]): 0.021 µM | Ki (Carbonic anhydrase 2): 0.016 µM

COc1cc(/C=C/c2cc(=O)oc3c2ccc2oc(-c4cc(OC)cc(OC)c4)cc23)cc(OC)c1
IC50 [5]: 13.9 µM | IC50 (Beta-secretase 1): 15.3 µM | Activity [14]: 6.8 µM | IC50 (Acetylcholinesterase [6]): 2.8 µM | IC50 (Cholinesterase [7]): 6.3 µM

NS(=O)(=O)c1ccc(/N=C/c2cc(Br)cc(Br)c2O)cc1
Ki (Carbonic anhydrase 1): 0.0321 µM | Ki (Acetylcholinesterase [13]): 0.021 µM | Ki (Acetylcholinesterase [15]): 2.54 µM

COc1cc(/C=C/c2cc(=O)oc3c2ccc2oc(-c4cccc(F)c4)cc23)cc(OC)c1
IC50 [5]: 13.9 µM | IC50 (Acetylcholinesterase [6]): 1.8 µM | IC50 (Cholinesterase [7]): 3.5 µM

COc1cc(/C=C/c2cc(=O)oc3c2ccc2oc(-c4ccc(C)cc4)cc23)cc(OC)c1
IC50 [5]: 13.9 µM | IC50 (Acetylcholinesterase [6]): 1.8 µM | IC50 (Cholinesterase [7]): 3.5 µM

NS(=O)(=O)c1ccc(NCc2cccc(Br)c2O)cc1
Activity [16]: 74.5% | Ki (Acetylcholinesterase [13]): 0.0777 µM | Activity [17]: 4.2%

Clc1ccc(/C=N/c2ccc3cn[nH]c3c2)cc1Cl
inhibition [18]: 58.9% | IC50 [19]: 2.6 µM | IC50 [20]: 19.5 µM | IC50 [3]: 1.14 µM

Cc1ncc(/C=C/c2ccc(CN3CCCCC3)c(O)c2)c(CO)c1O
IC50 [8]: 2.11 µM | Activity [9]: 1.52 µM

Cc1ncc(/C=C/c2ccc(CN3CCOCC3)c(O)c2)c(CO)c1O
Activity [9]: 1.52 µM

CCn1c2ccccc2c2cc(/C=C/c3ccc(NC(=S)NCCN4CCCC4)cc3)ccc21
IC50 (Cholinesterase [21]): 1.29 µM | IC50 (Acetylcholinesterase [22]): 2.64 µM | Activity [23]: 86.1 µM | inhibition [24]: 51.3%

COc1cc(/C=C/c2cc(=O)oc3c2ccc2oc(-c4cccc(Cl)c4)cc23)cc(OC)c1
IC50 [5]: 13.9 µM | IC50 (Acetylcholinesterase [6]): 1.8 µM | IC50 (Cholinesterase [7]): 3.5 µM

CCc1nc(/C=C/c2ccc(O)c(O)c2)ccc1O
EC50 (Liver): 2.43 µM

COc1ccc(-c2cc3c(ccc4c(/C=C/c5cc(OC)cc(OC)c5)cc(=O)oc43)o2)cc1
IC50 [5]: 13.9 µM | IC50 (Acetylcholinesterase [6]): 1.8 µM | IC50 (Cholinesterase [7]): 3.5 µM

COc1cc(/C=C/c2cc(=O)oc3c2ccc2oc(-c4ccc(Cl)cc4)cc23)cc(OC)c1
IC50 [5]: 13.9 µM | IC50 (Acetylcholinesterase [6]): 1.8 µM | IC50 (Cholinesterase [7]): 3.5 µM
